The source of these data is ChEMBL document CHEMBL1132778, “Synthesis of derivatives of NK109, 7-OH benzo[c]phenanthridine alkaloid, and evaluation of their cytotoxicities and reduction-resistant properties” (Bioorg Med Chem Lett, 2000).

SMILES strings stand for the structures.

The assay has as its system HeLa. Nature of the assay: Evaluated for cytotoxicity against HeLa S3 cells. It counts as functional, cell-based. Particulars: Homo sapiens.

By IC50 is commonly meant the point on the concentration scale where inhibition reaches its midpoint. Higher therefore signals lower potency. With `C[n+]1cc2c(O)c(OCc3ccccc3)ccc2c2ccc3cc4c(cc3c21)OCO4`, the IC50 amounted to 17000 nM. `CCC[n+]1cc2c(O)c(OC)ccc2c2ccc3cc4c(cc3c21)OCO4`: 400 nM corresponded to half-maximal inhibition (IC50). Against the preceding compound, the IC50 is about 42-fold lower. Take `C=CCOc1ccc2c(c[n+](C)c3c4cc5c(cc4ccc23)OCO5)c1O`: the half-inhibitory concentration (IC50) turned out to be 710 nM. As for `CCCc1c2c(O)c(OC)ccc2c2ccc3cc4c(cc3c2[n+]1C)OCO4`, the IC50 was 2900 nM. Compared with the last compound, the IC50 is about 4.1-fold higher.

`COc1ccc(-c2c3c(O)c(OC)ccc3c3ccc4cc5c(cc4c3[n+]2C)OCO5)cc1`: the IC50 turned out to be 16000 nM.

For `CC(=O)OCCOc1ccc2c(c[n+](C)c3c4cc5c(cc4ccc23)OCO5)c1O`, the IC50 amounted to 480 nM. Compared with the last compound, the IC50 is about 33-fold lower. Compound `CC[n+]1cc2c(O)c(OC)ccc2c2ccc3cc4c(cc3c21)OCO4` showed an IC50 of 400 nM.

On to `COC(=O)COc1ccc2c(c[n+](C)c3c4cc5c(cc4ccc23)OCO5)c1O`, for which the IC50 was determined as 15000 nM. Consider `C=CC[n+]1cc2c(O)c(OC)ccc2c2ccc3cc4c(cc3c21)OCO4`, for which half-maximal inhibition (IC50) was put at 760 nM. Turning to `C[n+]1cc2c(O)c(OCC(=O)O)ccc2c2ccc3cc4c(cc3c21)OCO4`, the IC50 is more than 24000 nM. `CCc1c2c(O)c(OC)ccc2c2ccc3cc4c(cc3c2[n+]1C)OCO4`: half-maximal inhibition (IC50) required 11000 nM. In turn, `CC(C)Oc1ccc2c(c[n+](C)c3c4cc5c(cc4ccc23)OCO5)c1O` had an IC50 of 2400 nM.

Regarding `COc1ccc2c(c[n+](CC(=O)O)c3c4cc5c(cc4ccc23)OCO5)c1O`, the IC50 was more than 24000 nM. Under `COc1ccc2c(c1O)c(C)[n+](C)c1c3cc4c(cc3ccc21)OCO4` stands 2900 nM. Under `COc1ccc2c(c1O)c(-c1ccccc1)[n+](C)c1c3cc4c(cc3ccc21)OCO4` stands 17000 nM. Compound `C[n+]1cc2c(O)c(OCCO)ccc2c2ccc3cc4c(cc3c21)OCO4` returned an IC50 of 520 nM. This IC50 lies about 33-fold lower than the previous one. The compound `COc1ccc2c(c1O)c(C1CC1)[n+](C)c1c3cc4c(cc3ccc21)OCO4` had an IC50 of 6500 nM. Regarding `C[n+]1cc2c(O)c(OCC(N)=O)ccc2c2ccc3cc4c(cc3c21)OCO4`, the IC50 was found to be 1900 nM. Compared with the last compound, the IC50 is about 3.4-fold lower. `COc1ccc2c(c[n+](C)c3c4cc5c(cc4ccc23)OCO5)c1O` [FAGARIDINE] had an IC50 of 320 nM.
